Measurements published in patent US20070231258A1, “Peptide conjugates” (KARYON CTT LTD., priority 2006, published 2007).
*1 amine or outer side, *2 acyl side, *3 side chain or, on linkers, in order; H or OH if unused. Bridges are numbered along the chain shown (N, C = ends). Primed or numbered codes have the meaning given here. [ ]: non-standard residue; d: D form. DTPA′ = diethylenetriaminepentaacetic acid chelator; NHCH2CH2SCH2CO = O=C(CSCCN[*:1])[*:2]; Cysteamide = C(CS[*:3])N[*:1]; AEEEA = NCCOCCOCCOCC(=O)O; AABz = not defined here

Key:
HCT-15 tumors = assay: Biodistribution of cystine- and lactam-bridged conjugates (Eu content) in HCT-15 tumor-bearing mice; assay type: in vivo, athymic-nu nude mice; details: 4 nmol MJ018 vs 16 nmol MJ069 i.v., 15 min circulation
Description: The biodistribution of the targeting agents MJ018 (lactam-bridged; described in Example 4) and MJ069 (cystine-bridged; described below) comprising functional peptide YGFVWGE was compared in mice carrying primary tumors of HTC-15, a human colorectal cancer cell line.
For production of experimental tumors, 22.5 million (for MJ018), and 1 million (for MJ069) HCT-15 cells were injected subcutaneously into both flanks of athymic-nu nude mice (Harlan Laboratories). The human colorectal cancer HCT-15 cell line (ATCC: CCL-225), called herein also “HCT-15”, was cultured in RPMI 1640 medium with 2 mM L-glutamine adjusted to contain 1.5 g/L sodium bicarbonate, 4.5 g/L glucose, 10 mM HEPES, and 1.0 mM sodium pyruvate, 1% penicillin/streptomycin, 10% fetal bovine serum.
Tumors were harvested when they had reached a minimum weight of 0.1 g. […]
For determination of the Eu content of the tumors and control or gans, 0.05-0.2 g of tissue was transferred into lysis buffer (20 mM Tris-HCl, 150 mM NaCl, 1% Nonident P40, pH 7.5) and homogenised. The Eu-content was determined from tissue lysates prepared into Enhancement solution (Perkin Elmer Wallac Ltd., Turku, Finland) and transferred to DELFIA Micro titration strip plates (Perkin Elmer Wallac Ltd., Turku, Finland). Time-resolved fluorescence was measured after incubation with a Wallac 1420 VICTOR3™ V plate reader using a D615 nm filter.

[1] = Plasma stability of the peptide conjugates in human blood plasma/PBS (HPLC)
Description: The peptide conjugates (10-20 μg) was added to a human blood plasma/PBS mixture (1:1) in a total volume of 500 μl and incubated at 37° C. After incubation 100 μl per time point (0 and 240 min) was transferred to YM-10 (Microcon, cut-off 10000 MW; manufacturer Millipore), centrifuged (10000 RPM) 15 min at 4° C. 50 μl of the spin-through material was analyzed by HPLC.
HPLC: Waters 626 pump, 600S controller, Waters 996 photo diode array detector. Column: C18, 300 Å, 5 μm, 2.1×250 mm. Eluents for the non-conjugated functional peptides: A 0.1% TFA, B 0.075% TFA/100% ACN. Gradient: 0-100% B in 60 min. Flow: 180 μl/min. Loop: 50 μl.
Eluents for the functional peptide conjugates: Eluent A: 0.05 M ammonium acetate; B: 50% 0.05 M ammonium acetate/50% ACN. Gradient: 0-100% B in 60 min. Flow: 180 μl/min. Loop: 50 μl. One-minute fractions were collected and analyzed with MALDI-TOF.
Peptide mass: Bruker Ultraflex MALDI-TOF, N2-laser 337 nm, matrix saturated solution of α-cyano-4-hydroxycinnamic acid, reflector mode.

HCT-15 = assay: Cell binding assay of immobilized peptide conjugate (MTT detection); assay type: cell-based, human; details: HCT-15 cells, wells coated at 30 μg/ml, 30 min 37° C.
Description: The human colorectal cancer HCT-15 cell line (ATCC: CCL-225), called herein also “HCT-15”, was cultured in RPMI 1640 medium with 2 mM L-glutamine adjusted to contain 1.5 g/L sodium bicarbonate, 4.5 g/L glucose, 10 mM HEPES, and 1.0 mM sodium pyruvate, 1% penicillin/streptomycin, 10% fetal bovine serum.
(§1) Preparation of plates for the assays. Wells of Reacti-Bind Maleimide activated clear strip plate (Pierce, Prod#. 15150) were coated with a peptide conjugate a*YGFVWGEE*-(Teg-E)2-EAT, Compound MJ013 prepared in Example 3, at a concentration of 30 μg/ml. The incubation was carried out overnight at 20° C. The binding buffer containing unbound peptide was re-moved from the wells.
(§2) The wells were blocked with blocking buffer (0.5% BSA, 0.05% Tween20 in phosphate buffer saline (PBS). PBS was prepared as follows: 40 g of NaCl, 1 g of KCl, 7 g of Na2HPO4×2H2O and 1 g of KH2PO4 were dissolved in […] of deionized H2O). Blank wells as controls were prepared by treating empty wells with blocking buffer. […]
(§3) Cell binding assay: 75000 cells in volume of 150 μl of medium were added into coated wells and were incubated for 30 min at 37° C. […] After formazan was solubilized by 10% SDS-0,01 M HCl, it was quantified with an ELISA spectrometer (ThermoLabsystems Multiscan EX) at 560 nm. […] The following day the absorbance of plate was measured at 560 nm with an ELISA-reader (ThermoLab-systems, Multiskan EX).

HCT-15-LM1 = assay: as above; assay type: cell-based, human; details: HCT-15-LM1 cells, wells coated at 30 μg/ml, 30 min 37° C.
Source text: The colorectal cancer cell line HCT-15-LM1 was developed as follows. The cell culture was started with cancer cells from lung metastases which had developed after injection of human colorectal cancer HCT-15 cells into the bloodstream of a mouse. The inoculation procedure was then repeated with HCT-15-LM1 cells leading to the establishment of another metastatic cell line, HCT-15-LM2.
as §1
The wells were blocked with blocking buffer (0.5% BSA, 0.05% Tween20 in phosphate buffer saline (PBS). PBS was prepared as follows: 40 g of NaCl, 1 g of KCl, 7 g of Na2HPO4×2H2O and 1 g of KH2PO4 were dissolved in 1000 ml of deionized H2O). […]
as §3

HSC-3 = assay: as above; assay type: cell-based, human; details: HSC-3 cells, wells coated at 30 μg/ml, 30 min 37° C.
Description: The human oral squamous cell carcinoma line HSC-3, called herein “HSC-3” (JCRB Cell Bank 0623, National Institute of Health Sciences, Japan) was cultivated in 1:1 DMEM and Ham's F 12 medium containing 10% FBS 1% penicillin/streptomycin, L-glutamate and sodium pyruvate and 0.4 ng/ml hydrocortisone.
as §1, §2, §3

C8161T = assay: as above; assay type: cell-based, human; details: C8161T cells, wells coated at 30 μg/ml, 30 min 37° C.
Description: The human melanoma cell line C8161 has been described previously by Welch et al. in Int. J. Cancer, 1991, 47: 227-237. A more metastatic cell line C8161T, called herein also “C8161T”, was developed by culturing cells from a subcutaneous melanoma tumor developed after inoculation of C8161 melanoma cells on the flank of a nude mouse. The cell line was cultured in DMEM medium adjusted to contain 2 mM L-glutamine, 1% penicillin/streptomycin, and 10% fetal bovine serum.
as §1, with “wells. […]” for “wells.”
as §3

NIH3T3 = assay: as above; assay type: cell-based, mouse; details: control cell line NIH3T3, wells coated at 30 μg/ml, 30 min 37° C.
Description: The mouse fibroblast line NIH3T3, called herein also “NIH3T3”, has been described previously by Koga et al. in Gann, 1979, 70: 585-591. The cell line was cultured in DMEM medium adjusted to contain 2 mM L-glutamine, 1% penicillin/streptomycin, and 10% fetal bovine serum.
as §1, §2, §3

SVEC4-10 = assay: as above; assay type: cell-based, mouse; details: control cell line SVEC4-10, wells coated at 30 μg/ml, 30 min 37° C.
Description: The mouse vascular endothelial cell line SVEC4-10, called herein also “SVEC4-10”, has been described previously by O'Connell et al. in J. Immunol., 1990, 144: 521-525. The cell line was cultured in DMEM medium adjusted to contain 2 mM L-glutamine, 1% penicillin/streptomycin, and 10% fetal bovine serum.
as §1, §2, §3

Substance | accumulation in tumor tissue (tissue-to-muscle Eu content), lactam- vs cystine-bridged (HCT-15 tumors) | Observed compound peak heights prior to incubation ([1]; 0 h, human blood plasma/PBS 1:1, 37° C.) | Observed compound peak heights after four hours ([1]; 4 h, human blood plasma/PBS 1:1, 37° C.) | degradation during incubation in plasma ([1]; 4 h incubation in human plasma) | cell binding to immobilized peptide conjugate (absorbance at 560 nm) (HCT-15) | cell binding to immobilized peptide conjugate (absorbance at 560 nm) (HCT-15-LM1) | cell binding to immobilized peptide conjugate (absorbance at 560 nm) (HSC-3) | cell binding to immobilized peptide conjugate (absorbance at 560 nm) (C8161T) | cell binding to immobilized peptide conjugate (absorbance at 560 nm) (NIH3T3) | cell binding to immobilized peptide conjugate (absorbance at 560 nm) (SVEC4-10)
a*YGFVWGEE*-(Teg-E)2-AEM-AABz-DTPA-Eu (YGFVWGEE[AEEEA]E[AEEEA]E-{NHCH2CH2SCH2CO-AABz-DTPA′}; lactam N-8; not fully specified (N-terminus); reading uncertain; also: DTPA chelate of Eu) [MJ018] | accumulated more strongly in the tumor tissue than the cystine-bridged conjugate MJ069 | 100% | 100% | no degradation |  |  |  |  |  | 
a*YGFVWGEE*-(Teg-E)2-EAT (YGFVWGEE[AEEEA]E[AEEEA]E-Cysteamide; lactam N-8; not fully specified (N-terminus)) [MJ013] |  |  |  |  | bind selectively | bind selectively | bind selectively | bind selectively | significantly less binding | significantly less binding
